Experimental data taken from patent US20110281852A1 (priority 2010, published 2011).

Columns and labels:
GATA-2 = experiment: Immunoblot, GATA-2 protein in epididymal fat of FD mice; format: in vivo, mouse; details: berberine treatment
Method: (§1) RNA and protein purification and quantification from epididymal fat tissues: RNA and protein was isolated from 60 mg of epididymal fat tissues with Trizol (Invitrogen, Carlsbad, Calif., USA) following the protocol recommended by the manufacturers. RNA was dissolved in pure water and quantified at 260/280 nm, and sample integrity was checked by 1.5% agarose gel electrophoresis. Protein concentration was determined using the Micro BCA Protein Assay Kit (Fisher Scientific, Pittsburgh, Pa., USA) according to the manufacturer's instructions.
Immunoblot Analysis: Protein expression of GATA-2, GATA-3, PPARγ and C/EBPα in the control of β-actin was assessed by Western Blot. Protein samples from the same group were homogenized as previously reported (Hu and Davies, Phytomedicine (2009) 16:864-873). Protein (25 μg) was separated by polyacrylamide gel electrophoresis using the BioRad Electrophoretic System (60 V for 1 h followed by 90 V for 5 h). The proteins were then transferred to nitrocellulose membranes at 35 V overnight. […]

PPARγ = experiment: Real-Time RT-PCR, PPARγ mRNA in epididymal fat of FD mice; format: in vivo, mouse
Method: as §1
Quantitative Real-Time RT-PCR: Real-Time reverse transcriptase polymerase chain reaction (RT-PCR) analysis was used to measure mRNA expression of genes PPARγ, C/EBPα, GATA-2 and GATA-3 in the control of β-actin. Total RNA (0.8 μg) from each sample was used for a reverse transcription reaction using the TaqMan Reverse Transcription Reagents (Applied Biosystems, Foster City, Calif., USA) following the manufacturer's instructions. PCR was done using the SYBR green Master Mix (Applied Biosystems, Foster City, Calif., USA) following the manufacturer's instructions. The cycling conditions of amplification were as follows: an initial step of denaturation at 95° C. for 10 min, 40 cycles of denaturation at 95° C. for 30 s, annealing at 55° C. for 30 s, and elongation at 72° C. for 30 s. Real-Time PCR was performed using Mx3000P Real-Time Thermocyclers (Stratagene, La Jolla, Calif., USA). The relative mRNA levels of these genes were calculated by 2-delta delta CT method and normalized with control-treated groups.

C/EBPα = experiment: Immunoblotting, C/EBPα protein in 3T3-L1; format: cell-based, mouse; details: 8 days
Method: (§2) Immunoblotting: Protein expression of SREBP-1, PPARγ, and C/EBPα relative to […] was assessed by Western Blot. Total proteins were isolated from 3T3-L1 cells treated with compounds or vehicles for 8 days. The cells were washed twice with PBS, lysed in a HEPES-Tx-PI buffer ([…], 5 mM EDTA, 350 mM Sucrose, 1 μg/ml leupeptin, 1 μg/ml pepstatin, 1% Triton-X, 1 mM PMSF), processed with 25G needles and centrifuged at 12,000 rpm for 5 min. Protein concentration was determined using the Micro BCA Protein Assay Kit (Fisher Scientific, Pittsburgh, Pa., USA) following the manufacturers instructions. 25 μg proteins were loaded and separated by electrophoresis using the BioRad Electrophoretic System (65 V for 7 hour). The proteins were then transferred to nitrocellulose membranes at 40 V overnight. The membrane was blocked for 1 hour at room temperature in 5% nonfat milk in Tris-buffered saline (TBS), then washed with Tween-20-TBS (TTBS, 0.1% Tween-20) three times (15 min, 5 min, 5 min), followed by incubation with primary antibodies SREBP-1 (dilution 1:200), PPARγ (dilution 1:200), C/EBPα (dilution 1:200) (all purchased from Santa Cruz Biotechnology, Santa Cruz, Calif., USA) and […] (dilution 1:1000, Sigma-Aldrich, St. Louis, Mo., USA) at room temperature for 2 hours. […]

SREBP-1 = experiment: Immunoblotting, SREBP-1 protein in 3T3-L1; format: cell-based, mouse; details: 8 days
Method: as §2

[1] = system: low density lipoprotein receptor (LDLR); experiment: Real-time RT-PCR, LDLR mRNA in 3T3-L1; format: cell-based, mouse; details: 8 days
Text: (§3) Realtime RT-PCR: Real-time reverse transcriptase polymerase chain reaction (RT-PCR) analysis was used to measure mRNA expression of genes SREBP-1, PPARγ, C/EBPα, low density lipoprotein receptor (LDLR), Adiponectin, and fatty acid synthase (FAS) under the control of β-actin. Briefly, total RNA was isolated from 3T3-L1 cells following treatment for 8 days with Trizol reagent (Invitrogen, Carlsbad, Calif., USA) according to the manufacturer's instruction. RNA was quantified using absorption of light at 260 nm, and sample purity was checked by OD 260 nm/280 nm. 0.8 μg of total RNA from each sample was used for reverse transcription reaction using the TaqMan Reverse Transcription Reagents (Applied Biosystems, Foster City, Calif., USA) according to the manufacturers' instructions. PCR was done using the SYBR green Master Mix (Applied Biosystems, Foster City, Calif., USA) according to the manufacturers' instructions. The temperature cycling conditions of amplification were as follows: an initial step of denaturation at 95° C. for 10 min, 40 cycles of denaturation at 95° C. for 30 s, annealing at 55° C. for 30 s, and elongation at 72° C. for 30 s. Realtime RT-PCR was performed using Mx3000P Realtime Thermocyclers (Statagene, La Jolla, Calif., USA). The relative mRNA levels of these genes were calculated by 2-delta delta CT method and normalized with control groups.

[2] = system: fatty acid synthase (FAS); experiment: Real-time RT-PCR, FAS mRNA in 3T3-L1; format: cell-based, mouse; details: 8 μM berberine + 50 μM risperidone, 8 days
Text: as §3

[3] = 8 μM berberine + 15 μM clozapine
[4] = 8 μM berberine + 50 μM risperidone

COc1ccc2cc3[n+](cc2c1OC)CCc1cc2c(cc1-3)OCO2.[Cl-] [berberine, Berberine (Chloride Form)]
quantitative protein expression of GATA-2 (GATA-2): did not appear to be significantly changed | reduction of PPARγ mRNA expression vs control treated group (PPARγ; 0.75 mg/kg/day): 56.1% | reduction of PPARγ mRNA expression vs control treated group (PPARγ; 1.5 mg/kg/day): 57.7% | reduction of PPARγ mRNA expression vs control treated group (PPARγ; 3 mg/kg/day): 78.3% | decrease of C/EBPα protein expression vs clozapine treated group (C/EBPα; [3]): 73% | decrease of C/EBPα protein expression vs risperidone treated group (C/EBPα; [4]): 68% | decrease of SREBP-1 protein expression vs clozapine treated group (SREBP-1; [3]): 64.6% | decrease of SREBP-1 protein expression vs risperidone treated group (SREBP-1; [4]): 60.4% | decrease of LDLR mRNA expression vs clozapine treated group [1, 3]: 82.3% | decrease of LDLR mRNA expression vs risperidone treated group [1, 4]: 90% | decrease of FAS mRNA expression vs risperidone treated group [2]: 85.5%
